Reference: patent US20260248087A1, “GENERATING DOUBLED HAPLOID PLANTS” (Syngenta Crop Protection AG, priority 2023, published 2026)
Where “and” joins values, the source holds several entries; their conditions need not be identical. Equal values may be shown once.

Legend:
isolated embryos = assay: Potting and transplant rate, co-treatment with benoxacor or dichlormid during colchicine treatment; assay type: in vivo, maize
Excerpt: As used herein, the term “potted rate” or “potting rate” refers to the percent of germinated embryos successfully transferred to soil from total treated haploid embryos. The “potted rate” is used as an indication of plant health in monitoring the success of recovery and growth after treatment of haploids. As used herein, the term “transplant rate” refers to the survival of healthy plants after embryos were germinated and transferred to soil.
Benoxacor was applied to isolated embryos of 2 genoytypes, with 2 replicates at levels of 0, 20, 50, 100 or 200 mg/L during colchicine treatment in the doubling media. The co-treatments were incubated for durations of 24 or 48 hours. […] None of the 48-hour co-treatments performed better than the equivalent co-treatment at 24 hours (see Table 18).
Dichlormid was applied to isolated embryos from 2 genotypes, with 2 replicates at levels of 0, 20, 50, 100, 200 and 300 mg/L during colchicine treatment in the doubling media. The co-treatments were incubated for durations of 24 or 48 hours. […] The highest percent transplanted rates were 92% and 88% for co-treatments 100 mg/L and 50 mg/L both at 24 hours, respectively. None of the 48-hour co-treatments performed better than the equivalent co-treatment at 24 hours (see Table 19).

corn embryos = assay: Uptake of metcamifen and metabolism of colchicine in corn embryos (LCMS); assay type: in vitro ADME; settings: 500 ppm colchicine, corn embryos
Experimental: An experiment was completed to evaluate the uptake of metcamifen into corn embryos, whether colchicine is metabolized in the embryos, and if metcamifen increased the rate of colchicine metabolism. Corn embryos were co-treated with 500 ppm colchicine in the presence of 200 ppm, 1000 ppm or no metcamifen (control) for 24 or 48 hours and frozen. One biological replicate was represented by five embryos, and three biological replicates were used per co-treatment.
Prior to extraction, embryos were washed for 20 seconds in 80:20 (v/v) acetonitrile:H2O to remove any colchicine and metcamifen on the surface. Each replicate was extracted in 0.5 ml methanol using a fast prep maceration method. Then, samples were diluted 1 in 10 prior to analysis by Liquid Chromatography Mass Spectrometry (LCMS). Samples were analyzed alongside matrix matched standards of colchicine and metcamifen. Metabolite investigations were performed to identify any metabolites.

C=CCN(CC=C)C(=O)C(Cl)Cl [Dichlormid, dichlormid]
Potting Rate Mean (isolated embryos; dichlormid 20 mg/L, 24 hours): 89% | Transplant Rate Mean (isolated embryos; dichlormid 20 mg/L, 24 hours): 86% | Potting Rate Mean (isolated embryos; dichlormid 50 mg/L, 24 hours): 90% and 91% | Transplant Rate Mean (isolated embryos; dichlormid 50 mg/L, 24 hours): 88% and 89% | Potting Rate Mean (isolated embryos; dichlormid 100 mg/L, 24 hours): 96% and 97% | Transplant Rate Mean (isolated embryos; dichlormid 100 mg/L, 24 hours): 92% | Potting Rate Mean (isolated embryos; dichlormid 100 mg/L, 48 hours): 70% | Transplant Rate Mean (isolated embryos; dichlormid 100 mg/L, 48 hours): 70% | Potting Rate Mean (isolated embryos; dichlormid 200 mg/L, 48 hours): 86% | Transplant Rate Mean (isolated embryos; dichlormid 200 mg/L, 48 hours): 84% | Potting Rate Mean (isolated embryos; dichlormid 300 mg/L, 48 hours): 95% | Transplant Rate Mean (isolated embryos; dichlormid 300 mg/L, 48 hours): 93%

COc1cc2c(c(OC)c1OC)-c1ccc(OC)c(=O)cc1[C@@H](NC(C)=O)CC2 [colchicine]
amount of colchicine recovered after 48 hours relative to 24 hours (corn embryos): double

CC1COc2ccccc2N1C(=O)C(Cl)Cl (stereo not shown) [Benoxacor, benoxacor]
Potting Rate Mean (isolated embryos; benoxacor 20 mg/L, 24 hours): 79% | Potting Rate Mean (isolated embryos; benoxacor 50 mg/L, 24 hours): 90% | Potting Rate Mean (isolated embryos; benoxacor 50 mg/L, 48 hours): 40% | Potting Rate Mean (isolated embryos; benoxacor 100 mg/L, 24 hours): 79% | Potting Rate Mean (isolated embryos; benoxacor 100 mg/L, 48 hours): 60% | Potting Rate Mean (isolated embryos; benoxacor 200 mg/L, 48 hours): 74%
